Values belong to the molecule of their own block, whether it stands above or below them.
Legend:
Adenosine receptor A1 [1] = biological target: T1, Adenosine receptor A1 (Rattus norvegicus, UniProt P25099)
T1 sequence (P25099 whole entry): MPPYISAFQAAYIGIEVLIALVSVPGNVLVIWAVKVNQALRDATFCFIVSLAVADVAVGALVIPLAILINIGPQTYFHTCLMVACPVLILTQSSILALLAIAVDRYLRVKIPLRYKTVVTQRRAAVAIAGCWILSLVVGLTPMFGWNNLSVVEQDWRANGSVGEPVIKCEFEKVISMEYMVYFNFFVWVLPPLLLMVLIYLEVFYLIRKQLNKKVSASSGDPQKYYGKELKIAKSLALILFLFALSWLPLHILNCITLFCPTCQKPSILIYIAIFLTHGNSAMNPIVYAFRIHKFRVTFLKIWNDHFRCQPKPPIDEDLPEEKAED

Adenosine A2 receptor [2] = biological target: T2, Adenosine A2 receptor (Homo sapiens, UniProt P29275+P29274); assay: Binding affinity for adenosine A2 receptor using [125I]PAPA-APEC in bovine striatum; format: tissue-based; conditions: Bos taurus, target entry is the homologue from another species
[3] = biological target: Adenosine A2 receptor (Rattus norvegicus) (UniProt P29276+P30543); assay: Binding affinity for Adenosine A2 receptor using [3H]- NECA; format: protein assay
[4] = test system: Adenosine receptors; A1 & A2 (Rattus norvegicus); assay: Ratio of adenosine A2 to A1 receptor binding
Adenosine receptor A1 [5] = biological target: T1, Adenosine receptor A1; assay: Binding affinity for Adenosine A1 receptor using [3H]- CHA or [3H]- PIA
Adenosine A2 receptor [6] = biological target: T2, Adenosine A2 receptor; assay: Binding affinity for adenosine A2 receptor using [3H]- NECA antagonism of adenylate cyclase activation in human platelets
Adenosine receptor A1 [7] = biological target: T1, Adenosine receptor A1; assay: Binding affinity for adenosine A1 receptor using [3H]- CHA or [3H]- PIA antagonism of adenylate cyclase inhibition in rat adipocytes; format: cell-based
Adenosine receptor A1 [8] = biological target: T3, Adenosine receptor A1 (Bos taurus, UniProt P28190); assay: Binding affinity for adenosine A1 receptor using [3H]- CHA or [3H]- PIA in bovine brain
T3 sequence (P28190 whole entry): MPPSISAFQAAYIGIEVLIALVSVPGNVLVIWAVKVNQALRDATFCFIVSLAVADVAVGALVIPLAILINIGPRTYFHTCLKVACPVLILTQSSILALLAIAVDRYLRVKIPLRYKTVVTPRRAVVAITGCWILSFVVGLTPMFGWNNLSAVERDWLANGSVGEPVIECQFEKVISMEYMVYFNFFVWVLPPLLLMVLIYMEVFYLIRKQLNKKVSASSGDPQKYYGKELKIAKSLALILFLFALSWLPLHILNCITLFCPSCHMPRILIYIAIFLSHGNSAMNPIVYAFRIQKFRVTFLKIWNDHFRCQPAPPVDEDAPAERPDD

Adenosine A2 receptor [9] = biological target: T2, Adenosine A2 receptor; assay: Binding affinity for adenosine A2 receptor using [3H]- NECA in bovine brain; conditions: Bos taurus; target entry is the homologue from another species
Adenosine A2 receptor [10] = biological target: Adenosine A2 receptor (Rattus norvegicus, UniProt P29276+P30543); assay: Binding affinity for adenosine A2 receptor using [3H]- NECA; format: protein assay
Adenosine receptor A1 [11] = biological target: T3, Adenosine receptor A1; assay: Binding affinity for adenosine A1 receptor using [3H]- CHA or [3H]- PIA in bovine brain cortical membranes; format: cell membranes

Ki (Adenosine receptor A1 [1]): 280 nM
Ki (Adenosine A2 receptor [2]): 7.1 nM
SMILES: CCNC(=O)[C@H]1OC(n2cnc3c(N)nc(NCCc4ccc(CCC(=O)NCC/N=C(\S)Nc5ccc(N=C=S)cc5)cc4)nc32)[C@H](O)[C@@H]1O (stereo partly specified)

Ki (Adenosine receptor A1 [1]): 211 nM
SMILES: CCCCCCC#Cc1nc(N)c2ncn([C@@H]3O[C@H](CO)[C@@H](O)[C@H]3O)c2n1

Ki [3]: 4920 nM
Ratio [4]: 700
Ki (Adenosine receptor A1 [5]): 7 nM
SMILES: OCCCNc1ncnc2c1ncn2C1O[C@H](CO)[C@@H](O)[C@H]1O (stereo partly specified)

Ki (Adenosine receptor A1 [1]): 1500 nM
SMILES: Nc1nc(OCCC2CCCCC2)nc2c1ncn2C1O[C@@H](CO)[C@H](O)[C@@H]1O (stereo partly specified)

Ki (Adenosine A2 receptor [6]): 20 nM
Ki (Adenosine receptor A1 [7]): 8 nM
SMILES: CCCn1c(=O)c2nc([C@H]3CC[C@H](CNC(C)=O)CC3)[nH]c2n(CCC)c1=O

Ki (Adenosine receptor A1 [5]): 7.1 nM
SMILES: O=C(Cc1ccc(NC(=O)Cc2ccc(Nc3ncnc4c3ncn4C3O[C@H](CO)[C@@H](O)[C@H]3O)cc2)cc1)NCC/N=C(/S)Nc1ccc2c(c1)C(=O)OC21c2ccc(O)cc2Oc2cc(O)ccc21 (stereo partly specified)

Ki [3]: 8400 nM
Ratio [4]: 38000
Ki (Adenosine receptor A1 [5]): 0.22 nM
SMILES: CCCCCCCCCCCCCCCCCC(=O)NCCNC(=O)Cc1ccc(NC(=O)Cc2ccc(Nc3ncnc4c3ncn4C3O[C@H](CO)[C@@H](O)[C@H]3O)cc2)cc1 (stereo partly specified)

Ki (Adenosine receptor A1 [1]): 22000 nM
SMILES: C#CCn1c(=O)c2c(ncn2C)n(C)c1=O

Ki (Adenosine receptor A1 [1]): 0.23 nM
SMILES: CCCn1c(=O)c2nc(C3CCCC3)[nH]c2n(CCc2ccc(N)c(I)c2)c1=O

Ki (Adenosine receptor A1 [1]): 28 nM
SMILES: FC(F)(F)c1nnc2c(NC3CCCC3)nc3ccc(Cl)cc3n12

Ki (Adenosine receptor A1 [1]): 2700 nM
SMILES: Nc1nc(NCCC2C=CCCC2)nc2c1ncn2C1O[C@H](CO)[C@@H](O)[C@H]1O (stereo partly specified)

Ki (Adenosine receptor A1 [1]): 4.7 nM
SMILES: Cc1c(C)n([C@H](C)Cc2ccccc2)c2nc(-c3ccccc3)nc(N)c12

Ki (Adenosine receptor A1 [5]): 0.7 nM
SMILES: Nc1ccc(CNc2ncnc3c2ncn3C2O[C@H](CO)[C@@H](O)[C@H]2O)cc1I (stereo partly specified)

SMILES: Cn1c(=O)c2c(nc(C3CCCCC3)n2C)n(C)c1=O
Ki (Adenosine A2 receptor [6]): 0.19 nM

Ki (Adenosine receptor A1 [5]): 4.1 nM
SMILES: OC[C@H]1O[C@@H](n2cnc3c(NCCc4ccccc4)ncnc32)[C@H](O)[C@@H]1O

Ki (Adenosine receptor A1 [5]): 0.94 nM
SMILES: C[C@H](Cc1ccc(O)c(I)c1)Nc1ncnc2c1ncn2[C@@H]1O[C@H](CO)[C@@H](O)[C@H]1O

Ki (Adenosine receptor A1 [8]): 10 nM
Ki (Adenosine A2 receptor [9]): 6100 nM
SMILES: Cn1cnc2c(NC3CC4CCC3C4)ncnc21 (stereo unspecified)

Ki (Adenosine receptor A1 [1]): 3100 nM
SMILES: Oc1cccc(C2=CSC3=Nc4ccccc4CN23)c1

SMILES: CCCn1c(=O)c2[nH]c(C3CCC(=O)C3)nc2n(CCC)c1=O (stereo unspecified)
Ki (Adenosine receptor A1 [1]): 10.5 nM

Ki (Adenosine receptor A1 [1]): 23 nM
SMILES: Nc1nc(-c2ccccc2)nc2c1cnn2-c1ccccc1

Ki (Adenosine receptor A1 [5]): 2 nM
SMILES: Nc1ccc(CCNc2ncnc3c2ncn3C2O[C@H](CO)[C@@H](O)[C@H]2O)cc1I (stereo partly specified)

Ki [3]: 663 nM
SMILES: OC[C@H]1O[C@@H](n2cnc3c(Nc4ccccc4)ncnc32)[C@H](O)[C@@H]1O

Ki (Adenosine receptor A1 [1]): 240 nM
Ki (Adenosine A2 receptor [10]): 5.7 nM
SMILES: CCNC(=O)[C@H]1O[C@@H](n2cnc3c(N)nc(NCCc4ccc(CCC(=O)NCCN)cc4)nc32)[C@H](O)[C@@H]1O

Ki (Adenosine receptor A1 [11]): 0.1 nM
SMILES: CCCn1c(=O)c2nc(-c3ccc(OCC(=O)NCCNC(=O)CCc4ccc(N)c(I)c4)cc3)[nH]c2n(CCC)c1=O

Ki (Adenosine receptor A1 [1]): 48 nM
SMILES: Cc1ccc(CCOc2nc(N)c3ncn(C4O[C@@H](CO)[C@H](O)[C@@H]4O)c3n2)cc1 (stereo partly specified)

Ki (Adenosine A2 receptor [10]): 1 nM
SMILES: CCNC(=O)[C@H]1OC(n2cnc3c(N)nc(NCCc4ccc(CCC(=O)NCCNC(=O)Cc5ccc(N)c(I)c5)cc4)nc32)[C@H](O)[C@@H]1O (stereo partly specified)

Ki (Adenosine receptor A1 [1]): 147 nM
SMILES: CCCCC#Cc1nc(N)c2ncn([C@@H]3O[C@H](CO)[C@@H](O)[C@H]3O)c2n1

Ki (Adenosine receptor A1 [1]): 270 nM
SMILES: Nc1nc2ccc(Cl)cc2n2c(-c3ccccc3)nnc12

Reference: ChEMBL document CHEMBL1125572, “Adenosine receptors: pharmacology, structure-activity relationships, and therapeutic potential” (J Med Chem, 1992)
